How the values were obtained:
[1] = target: α-glucosidase (Saccharomyces cerevisiae, UniProt P53341); type: biochemical
Description: (§1) The absorbance was measured at 540 nm using a UV-Visible spectrophotometer. The IC50 of each tested sample was calculated by plotting a curve using a series of sample concentrations against the percent of α-amylase inhibition.
(§2) The inhibition percentage (%) of the α-glucosidase enzyme was determined using the […]
(§3) standard drug. Five μL of the α-glucosidase solution (10 units mL−1, 0.1moll−1 potassium phosphate buffer, pH 6.8) was pre -mixed with 10 μL of the sample solution at different concentrations (in 10% DMSO) i n 620 μL of 0.1 moll−1 potassium […]
(§4) phosphate buffer (pH 6.8). […]
(§5) phenyl glucopyranoside (pNPG, 10 mmoll−1) as a substrate was added to the mixture […]
(§6) minutes, followed by the addition of 650 μL of 1 moll−1 Na2CO3 solution to terminate the reaction. The amount of released product (p-nitro phenol) was measured at 410 […]
activity. The inhibition assay was performed in triplicate for all tests. The IC50 of each tested sample was calculated by plotting a curve using a series of sample concentrations against the percent of α-glucosidase inhibition.
3.4. Anti-Alzheimer's activity
(§7) In this study, we assessed the inhibition percentage of the acetylcholinesterase (AChE) enzyme using Ellman's method with donepezil as the standard drug. […] After incubation, 5 µL of AChE at a concentration of 0.3 U/mL was added to start the reaction, and the absorbance […]

[2] = target: T1, α-amylase (Sus scrofa, UniProt P00690); assay: α-amylase inhibition (anti-diabetic); type: biochemical; conditions: at 100 µg/mL; mean ± SE, n = 3
T1 sequence (P00690 16-511): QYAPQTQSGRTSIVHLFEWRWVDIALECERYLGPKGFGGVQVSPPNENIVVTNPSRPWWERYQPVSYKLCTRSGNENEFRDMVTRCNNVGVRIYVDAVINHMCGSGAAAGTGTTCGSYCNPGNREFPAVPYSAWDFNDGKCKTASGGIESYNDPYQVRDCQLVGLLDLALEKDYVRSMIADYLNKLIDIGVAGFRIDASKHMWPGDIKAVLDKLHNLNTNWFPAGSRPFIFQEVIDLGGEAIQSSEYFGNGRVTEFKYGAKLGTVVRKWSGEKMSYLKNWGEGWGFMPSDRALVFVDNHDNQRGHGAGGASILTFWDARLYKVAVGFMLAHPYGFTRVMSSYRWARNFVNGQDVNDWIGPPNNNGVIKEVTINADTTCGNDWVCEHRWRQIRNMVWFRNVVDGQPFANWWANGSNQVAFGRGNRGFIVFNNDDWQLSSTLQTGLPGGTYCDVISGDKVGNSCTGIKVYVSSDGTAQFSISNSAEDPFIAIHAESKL
Description: 3.3. Anti-diabetic activity […]
tetrahydrate in 8.0 mL of 2 M NaOH and 20 mL of 96 mM of DNSA solution). The […]
as §1, §2, §3, §4, §5, §6
activity. […] The IC50 of each tested sample was calculated by plotting a curve using a series of sample concentrations against the percent of α-glucosidase inhibition. […]
as §7

Chain of α-glucosidase (P53341 whole entry): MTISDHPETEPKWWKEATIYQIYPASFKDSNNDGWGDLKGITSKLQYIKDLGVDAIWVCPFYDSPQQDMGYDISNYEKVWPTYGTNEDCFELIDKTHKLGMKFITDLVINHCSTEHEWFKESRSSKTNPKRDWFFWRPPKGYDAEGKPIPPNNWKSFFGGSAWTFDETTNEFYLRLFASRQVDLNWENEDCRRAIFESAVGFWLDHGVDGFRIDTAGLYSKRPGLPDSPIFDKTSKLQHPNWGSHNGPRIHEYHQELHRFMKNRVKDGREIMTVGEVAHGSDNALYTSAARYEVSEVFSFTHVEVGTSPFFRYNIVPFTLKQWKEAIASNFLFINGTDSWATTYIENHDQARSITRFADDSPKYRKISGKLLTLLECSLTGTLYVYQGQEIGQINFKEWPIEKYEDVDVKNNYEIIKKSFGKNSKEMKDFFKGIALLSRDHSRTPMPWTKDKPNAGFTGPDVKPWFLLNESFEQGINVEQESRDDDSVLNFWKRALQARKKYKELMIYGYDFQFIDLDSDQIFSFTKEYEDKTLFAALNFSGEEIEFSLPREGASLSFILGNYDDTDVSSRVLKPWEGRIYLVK

C[C@H]1O[C@H](O[C@H]2[C@H](O)[C@@H](O)[C@@H](O[C@H]3[C@H](O)[C@@H](O)C(O)O[C@@H]3CO)O[C@@H]2CO)[C@H](O)[C@@H](O)[C@@H]1N[C@H]1C=C(CO)[C@@H](O)[C@H](O)[C@H]1O (some centres unmarked) [Acarbose]
α-Glucosidase Inhib. (%) [1]: 44.71 ± 0.10 Acarbose % | α-Amylase Inhib. (%) [2]: 54.96 ± 0.10 Acarbose %
